Laboratory results published in patent publication EP4516912A1, “HERBICIDE RESISTANT PLANTS” (Eberhard-Karls-Universität Tübingen, priority 2023, dated 2025).
“Also recorded” adds a separate entry of the source.

What was measured:
mAtDHQS1 [1] = biological target: T1, mAtDHQS1 (Arabidopsis thaliana, UniProt Q8VYV7); test: MicroScale Thermophoresis (MST) binding and competition
T1 construct: The mature i.e. biologically relevant enzyme (mAtDHQS1) with 381 amino acids; (His)6 (C); made in house; host or cells: E. coli
T1 sequence (Q8VYV7 59-442): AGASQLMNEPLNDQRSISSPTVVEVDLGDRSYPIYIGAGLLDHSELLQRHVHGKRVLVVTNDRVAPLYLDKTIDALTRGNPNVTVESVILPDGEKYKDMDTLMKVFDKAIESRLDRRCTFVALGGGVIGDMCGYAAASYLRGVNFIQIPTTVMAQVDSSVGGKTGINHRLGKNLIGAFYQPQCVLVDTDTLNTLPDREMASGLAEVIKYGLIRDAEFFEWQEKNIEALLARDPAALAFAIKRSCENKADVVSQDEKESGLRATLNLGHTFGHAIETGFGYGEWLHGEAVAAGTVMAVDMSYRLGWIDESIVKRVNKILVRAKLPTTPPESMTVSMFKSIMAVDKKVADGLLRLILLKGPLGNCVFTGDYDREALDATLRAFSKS
Procedure: (§1) (A) Schematic representation of mDHSQ1 and pDHQS1 both containing a C-terminal (His)6 tag for purification after heterologous expression of the recombinant proteins in E.coli. aa: amino acid. (B) Relative activity of mDHQS1 (left) and pDHQS1 (right) in the presence of the indicated concentrations of 7dSh. The activity in the absence of 7dSh was set to 1. […] (A) MST fluorescence spectrum of RED dye-labelled mAtDHQS1 (50 nM) in the absence of DAHP (blue line, marked as line 1) or in the presence of 500 µM DAHP (green line, marked as line 2). […] (B) MST fluorescence spectrum of RED dye-labelled mAtDHQS1 (50 nM) in the absence of 7dSh (blue line marked as line 1) or in the presence of 500 µM 7dSh (green line marked as line 2). No downward shift is detectable, showing that there is no binding. (C) MST fluorescence spectrum of RED dye-labelled mAtDHQS1 (50 nM) in the absence of 7dSh and DAHP (blue line, marked as line 1), in the presence of 250 µM DAHP (green line marked as line 2) or 250 µM DAHP and 250 µM 7dSh (red line marked as line 3). […] (A) Growth of 3-days-old wild type plants (Col-0) or two independent transgenic lines each ectopically overexpressing either EGFP-tagged AtDHQS1 (1-1, 1-2) or EGFP-tagged AtDHQS2 (2-1, 2-2) after 3 days on control plates (mock) or on plates containing 250 µM 7dSh. (B) As in (A) but the root length was quantified. n = 10 different, lower case letters mean statistically significant differences between the data sets (ANOVA test). (C) Subcellular localization of EGFP-tagged AtDHQS1 (lines 1-1 and 1-2) or EGFP-tagged AtDHQS2 (lines 2-1 and 2-2) in chloroplasts (red fluorescence) of 3-days-old transgenic Arabidopsis plants. […] (Left) relative AtDHQS1 transcript levels in the indicated transgenic Arabidopsis lines as determined by qRT-PCR using AtDHQS1 gene-specific primers. AtDHQS1 transcript levels are about ten times higher than in wild type (Col-0). (Right) relative AtDHQS2 transcript levels in the indicated transgenic Arabidopsis lines as determined by qRT-PCR using AtDHQS2 gene-specific primers. […]

mAtDHQS1 [2] = biological target: T1, mAtDHQS1; test: enzymatic assay with purified recombinant mature AtDHQS1; type: biochemical; details: 100 to 1000 µM; 50 ng purified recombinant enzyme; Figure 1B
Procedure: (§2) (A) Schematic representation of mDHSQ1 and pDHQS1 both containing a C-terminal (His)6 tag for purification after heterologous expression of the recombinant proteins in E.coli. aa: amino acid. (B) Relative activity of mDHQS1 (left) and pDHQS1 (right) in the presence of the indicated concentrations of 7dSh. The activity in the absence of 7dSh was set to 1. […] (A) MST fluorescence spectrum of RED dye-labelled mAtDHQS1 (50 nM) in the absence of DAHP (blue line, marked as line 1) or in the presence of 500 µM DAHP (green line, marked as line 2). […] (B) MST fluorescence spectrum of RED dye-labelled mAtDHQS1 (50 nM) in the absence of 7dSh (blue line marked as line 1) or in the presence of 500 µM 7dSh (green line marked as line 2). […] (C) MST fluorescence spectrum of RED dye-labelled mAtDHQS1 (50 nM) in the absence of 7dSh and DAHP (blue line, marked as line 1), in the presence of 250 µM DAHP (green line marked as line 2) or 250 µM DAHP and 250 µM 7dSh (red line marked as line 3). […] (B) As in (A) but the root length was quantified. n = 10 different, lower case letters mean statistically significant differences between the data sets (ANOVA test). (C) Subcellular localization of EGFP-tagged AtDHQS1 (lines 1-1 and 1-2) or EGFP-tagged AtDHQS2 (lines 2-1 and 2-2) in chloroplasts (red fluorescence) of 3-days-old transgenic Arabidopsis plants. […]

[3] = tested on: Arabidopsis wild type seedlings or transgenic lines overexpressing AtDHQS1-GFP or AtDHQS2-GFP; test: comparative root growth experiments on growth medium; type: in vivo, Arabidopsis thaliana; details: 250 µM
Procedure: as §1

pAtDHQS1 = biological target: T2, pAtDHQS1 (Arabidopsis thaliana, UniProt Q8VYV7); test: enzymatic assay with purified recombinant AtDHQS1 still containing the transit peptide; type: biochemical; details: 100 to 1000 µM; 50 ng purified recombinant enzyme; Figure 1B
T2 construct: a version that still has the 61 amino acid long transit peptide for plastid import (pAtDHQS1); (His)6 (C); made in house; host or cells: E. coli
T2 sequence (Q8VYV7 59-442): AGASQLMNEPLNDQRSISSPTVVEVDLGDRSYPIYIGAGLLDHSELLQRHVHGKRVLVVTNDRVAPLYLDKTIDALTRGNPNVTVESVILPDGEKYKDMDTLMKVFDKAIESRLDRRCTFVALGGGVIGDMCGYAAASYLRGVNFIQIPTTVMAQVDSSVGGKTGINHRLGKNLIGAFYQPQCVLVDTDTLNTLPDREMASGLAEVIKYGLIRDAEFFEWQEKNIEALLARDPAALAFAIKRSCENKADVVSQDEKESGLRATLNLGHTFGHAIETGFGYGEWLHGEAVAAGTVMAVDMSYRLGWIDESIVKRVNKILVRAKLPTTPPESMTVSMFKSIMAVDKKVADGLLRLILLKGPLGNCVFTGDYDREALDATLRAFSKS
Procedure: as §2

[4] = tested on: Arabidopsis thaliana, Brassica napus and Hordeum vulgare seedlings; test: sedoheptulose accumulation in seedling extracts after exposure; type: in vivo; details: extracts after exposure of seedlings of the three species
Source text: The finding that AtDHQS1 is not the target of 7dSh, but that the overexpression of AtDHQS1 (-GFP) causes partial tolerance to 7dSh in Arabidopsis seems contradictory, and is in stark contrast to the findings of the prior art. Without being bound to theory, overexpression of AtDHQS1 could lead to a metabolic imbalance in the plant, and thereby could indirectly influence the amount, constitution, intracellular localization, biochemical and physiological activity of counteracting enzymes or proteins, one of which potentially being the true target for 7dSh. This hypothesis is in agreement with a recent finding that a strong accumulation of sedoheptulose was detectable in the extracts after exposure of Arabidopsis thaliana, Brassica napus and Hordeum vulgare seedlings to 7dSh. The accumulation was up to 60 times higher than in the untreated seedlings of the three species. Sedoheptulose is a ketoheptose - a monosaccharide with seven carbon atoms and a ketone functional group and one of the few heptoses found in nature. Sedoheptulose is not a metabolite of the shikimate pathway and can in no way serve as substrate for AtDHQS1.

[5] = tested on: thale cress (Arabidopsis thaliana), rapeseed/canola (Brassica napus), barley (Hordeum vulgare), maize (Zea mays), red-root amaranth (Amaranthus retroflexus) …; test: herbicidal effect in growth medium on model and crop plants and weeds (root growth); type: in vivo; details: tested in parallel
[6] = substrate: O=C(O)C(=O)C[C@@H](O)[C@H](O)[C@H](O)COP(=O)(O)O; test: enzymatic assay with purified recombinant mature AtDHQS1; type: biochemical, Arabidopsis thaliana; details: other: substrate DAHP; mAtDHQS1
Procedure: as §2

[7] = substrate: O=C(O)C(=O)C[C@@H](O)[C@H](O)[C@H](O)COP(=O)(O)O; test: enzymatic assay with purified recombinant AtDHQS1 still containing the transit peptide; type: biochemical, Arabidopsis thaliana; details: other: substrate DAHP; pAtDHQS1
Procedure: as §2

[8] = 3-days-old seedlings, two independent lines

C[C@@H](O)[C@@H](O)[C@@H](O)[C@H](O)C(=O)CO [7dSh, 7-deoxy-sedoheptulose] was tested, and the “competition with DAHP for binding to mAtDHQS1 (MST)” value (mAtDHQS1 [1]; RED dye-labelled mAtDHQS1 (50 nM), 250 µM DAHP and 250 µM 7dSh, Fig. 2 C) was “no competition; also recorded: not able to displace DAHP”, the “binding to mAtDHQS1 (MST)” value (mAtDHQS1 [1]; RED dye-labelled mAtDHQS1 (50 nM), 500 µM ligand, Fig. 2 A/B) was “no binding; also recorded: no interaction” and the “effect on the activity of mAtDHQS1” value (mAtDHQS1 [2]) was “not inhibited; also recorded: no effect”. For the same molecule, the “root growth of wild type seedlings” value ([3]; 3-days-old Arabidopsis wild type (Col-0) seedlings, 3 days) was “completely inhibited”, the “tolerance of seedlings of AtDHQS2-GFP transgenic lines” value [3, 8] was “no tolerance” and the “tolerance of seedlings of transgenic lines overexpressing AtDHQS1-GFP” value [3, 8] was “partial but not complete tolerance”. The “effect on the activity of pAtDHQS1” value (pAtDHQS1) was “not inhibited; also recorded: no effect” and the accumulation of sedoheptulose [4] was “up to 60 times higher than in the untreated seedlings”.

With O=C(O)CNCP(=O)(O)O [glyphosate] the “effective concentrations compared with 7dSh” value [5] was “comparable”.

Work on O=C(O)C(=O)C[C@@H](O)[C@H](O)[C@H](O)COP(=O)(O)O [DAHP, 3-deoxy-D-arabino-heptulosonate-7-phosphate, reference compound] yielded a Kd (mAtDHQS1 [1]) of 33 µM.

B1: mAtDHQS1 (Arabidopsis thaliana) (protein)
chain: AGASQLMNEPLNDQRSISSPTVVEVDLGDRSYPIYIGAGLLDHSELLQRHVHGKRVLVVTNDRVAPLYLDKTIDALTRGNPNVTVESVILPDGEKYKDMDTLMKVFDKAIESRLDRRCTFVALGGGVIGDMCGYAAASYLRGVNFIQIPTTVMAQVDSSVGGKTGINHRLGKNLIGAFYQPQCVLVDTDTLNTLPDREMASGLAEVIKYGLIRDAEFFEWQEKNIEALLARDPAALAFAIKRSCENKADVVSQDEKESGLRATLNLGHTFGHAIETGFGYGEWLHGEAVAAGTVMAVDMSYRLGWIDESIVKRVNKILVRAKLPTTPPESMTVSMFKSIMAVDKKVADGLLRLILLKGPLGNCVFTGDYDREALDATLRAFSKS
notes: The mature i.e. biologically relevant enzyme (mAtDHQS1) with 381 amino acids; (His)6 (C); made in house; host or cells: E. coli
Molecule B1 has a Km [6] of 8.3 µM.

B2: pAtDHQS1 (Arabidopsis thaliana) (protein)
chain: AGASQLMNEPLNDQRSISSPTVVEVDLGDRSYPIYIGAGLLDHSELLQRHVHGKRVLVVTNDRVAPLYLDKTIDALTRGNPNVTVESVILPDGEKYKDMDTLMKVFDKAIESRLDRRCTFVALGGGVIGDMCGYAAASYLRGVNFIQIPTTVMAQVDSSVGGKTGINHRLGKNLIGAFYQPQCVLVDTDTLNTLPDREMASGLAEVIKYGLIRDAEFFEWQEKNIEALLARDPAALAFAIKRSCENKADVVSQDEKESGLRATLNLGHTFGHAIETGFGYGEWLHGEAVAAGTVMAVDMSYRLGWIDESIVKRVNKILVRAKLPTTPPESMTVSMFKSIMAVDKKVADGLLRLILLKGPLGNCVFTGDYDREALDATLRAFSKS
notes: a version that still has the 61 amino acid long transit peptide for plastid import (pAtDHQS1); (His)6 (C); made in house; host or cells: E. coli
B2 showed a Km [7] of 2.9 µM.
